ChEMBL document CHEMBL5131395 (Eur J Med Chem, 2022)
The source made the active and inactive calls. No cut-off for these calls is given here.

What was measured:
Mus musculus [1] = assay: Antifibrotic activity against BLM induced C57BL/6J mouse lung fibrosis model assessed as recovery of body weight at 30 to 60 mg/kg, ip pretreated with compound administered once daily for 3 days followed by BLM treatment and measured after 28 days; assay type: functional, organism-based; details: dose 30-60 mg/kg, time 31.0 day
Autotaxin = Autotaxin (Homo sapiens, UniProt Q13822); assay: Inhibition of human ATX using FS-3 as substrate preincubated for 45 mins followed by substrate addition measured every 1 min for 30 mins by fluorescence based microplate reader analysis
Mus musculus [2] = assay: (§1) Antifibrotic activity against BLM induced C57BL/6J mouse lung fibrosis model assessed as improvement in lung architecture by measuring appearance of fibrotic lesions at 30 to 60 mg/kg, ip pretreated with compound administered once daily for 3 days followed by BLM treatment and measured after 28 days by hematoxylin and eosin staining based microscopic analysis; assay type: functional, organism-based; details: dose 30-60 mg/kg, time 31.0 day
[3] = Downregulation of TGF-beta expression in lung tissue of BLM induced C57BL/6J mouse lung fibrosis model assessed as fold reduction in TGF-beta expression level at 30 to 60 mg/kg, ip by qRT-PCR analysis; assay type: functional; details: dose 30-60 mg/kg
[4] = In vivo inhibition of ATX in lung homogenate of BLM induced C57BL/6J mouse lung fibrosis model assessed as reduction in ATX activity using FS-3 as substrate at 30 mg/kg, ip by fluorescence based microplate reader analysis (reference value: 7.78%); assay type: functional
[5] = Cytotoxicity against human HBE cells assessed as lethal dose; assay type: toxicity, cell-based; details: HBE cells (epithelial cell line), read-out: LD50 (the source's name)
[6] = Tmax in rat at 60 mg/kg, po by LC-MS/MS analysis; assay type: ADME, organism-based; details: in vivo
[7] = In vivo inhibition of ATX in BALF of BLM induced C57BL/6J mouse lung fibrosis model assessed as reduction in ATX activity using FS-3 as substrate at 30 to 60 mg/kg, ip by fluorescence based microplate reader analysis (reference value: 4.50%); assay type: functional, Bronchoalveolar lavage; details: dose 30-60 mg/kg
[8] = Half life in rat at 60 mg/kg, po by LC-MS/MS analysis; assay type: ADME, organism-based; details: in vivo
[9] = Downregulation of IL-6 expression in lung tissue of BLM induced C57BL/6J mouse lung fibrosis model assessed as fold reduction in IL-6 expression level at 30 to 60 mg/kg, ip by qRT-PCR analysis; assay type: functional; details: dose 30-60 mg/kg
[10] = Cmax in rat at 60 mg/kg, po by LC-MS/MS analysis; assay type: ADME, organism-based; set-up: dose 60 mg/kg, route po; details: in vivo
Mus musculus [11] = assay: as §1, with “Masson” for “hematoxylin and eosin”; assay type: functional, organism-based; details: dose 30-60 mg/kg, time 31.0 day
Mus musculus [12] = assay: as §1, with “of conterminous” for “of”, “walls” for “lesions”; assay type: functional, organism-based; details: dose 30-60 mg/kg, time 31.0 day
[13] = In vivo inhibition of ATX in lung homogenate of BLM induced C57BL/6J mouse lung fibrosis model assessed as reduction in ATX activity using FS-3 as substrate at 60 mg/kg, ip by fluorescence based microplate reader analysis (reference value: 7.78%); assay type: functional
[14] = AUC (0 to infinity) in rat at 60 mg/kg, po by LC-MS/MS analysis; assay type: ADME, organism-based; set-up: time infinity, dose 60 mg/kg, route po; details: in vivo
[15] = AUC (0 to t) in rat at 60 mg/kg, po by LC-MS/MS analysis; assay type: ADME, organism-based; set-up: dose 60 mg/kg, route po; details: in vivo
Mus musculus [16] = assay: as §1, with “of conterminous” for “of”, “walls” for “lesions”, “Masson” for “hematoxylin and eosin”; assay type: functional, organism-based; details: dose 30-60 mg/kg, time 31.0 day
[17] = Downregulation of TNF-alpha expression in lung tissue of BLM induced C57BL/6J mouse lung fibrosis model assessed as fold reduction in TNF-alpha expression level at 30 to 60 mg/kg, ip by qRT-PCR analysis; assay type: functional; details: dose 30-60 mg/kg
Mus musculus [18] = assay: as §1, with “at” for “at 30 to”, “Masson” for “hematoxylin and eosin”; assay type: functional, organism-based; details: time 31.0 day
Mus musculus [19] = assay: as §1, with “of conterminous” for “of”, “walls” for “lesions”, “at” for “at 30 to”; assay type: functional, organism-based; details: time 31.0 day
Mus musculus [20] = assay: Antifibrotic activity against BLM induced C57BL/6J mouse lung fibrosis model assessed as recovery of body weight at 60 mg/kg, ip pretreated with compound administered once daily for 3 days followed by BLM treatment and measured after 28 days; assay type: functional, organism-based; details: time 31.0 day
[21] = Downregulation of IL-6 expression in lung tissue of BLM induced C57BL/6J mouse lung fibrosis model assessed as fold reduction in IL-6 expression level at 60 mg/kg, ip by qRT-PCR analysis; assay type: functional
[22] = Downregulation of TNF-alpha expression in lung tissue of BLM induced C57BL/6J mouse lung fibrosis model assessed as fold reduction in TNF-alpha expression level at 60 mg/kg, ip by qRT-PCR analysis; assay type: functional
Mus musculus [23] = assay: as §1, with “of conterminous” for “of”, “walls” for “lesions”, “at” for “at 30 to”, “Masson” for “hematoxylin and eosin”; assay type: functional, organism-based; details: time 31.0 day
[24] = Downregulation of TGF-beta expression in lung tissue of BLM induced C57BL/6J mouse lung fibrosis model assessed as fold reduction in TGF-beta expression level at 60 mg/kg, ip by qRT-PCR analysis; assay type: functional
Mus musculus [25] = assay: as §1, with “at” for “at 30 to”; assay type: functional, organism-based; details: time 31.0 day
[26] = Clearance in rat at 60 mg/kg, po by LC-MS/MS analysis; assay type: ADME, organism-based; details: in vivo

In the case of `CCn1cc(NC(=O)NCc2ccc(OC)c(Cl)c2)c2cc(-c3nc(CN(CCO)CCO)cs3)ccc21`, the Activity (Mus musculus [1]) is reported as “Active”, the IC50 (Autotaxin) is reported as 2.17 nM and the Activity (Mus musculus [2]) is reported as “Active”. The “fold change (FC)” value [3] was 2, the inhibition in vivo at 30 mg/kg [4] was 5.59% and the CC50 [5] was greater than 20000 nM. The Tmax [6] was 3.91 h, the “inhibition (INH)” value [7] was 3.23% and the half-life [8] was 3.11 h. For the same compound, the “fold change (FC)” value [9] was 2, the Cmax [10] was 131 ng/mL and the Activity (Mus musculus [11]) was “Active”. For the same compound, the Activity (Mus musculus [12]) was “Active”, the inhibition in vivo at 60 mg/kg [13] was 5.03% and the AUC [14] was 680 ng·h/mL. The AUC(0-t) [15] was 670 ng·h/mL, the Activity (Mus musculus [16]) was “Active” and the “fold change (FC)” value [17] was 2.

For `CCc1nc2c(C)cc(N3CCN(CC(=O)N4CC(O)C4)CC3)cn2c1N(C)c1nc(-c2ccc(F)cc2)c(C#N)s1` [ZIRITAXESTAT], the Activity (Mus musculus [18]) was “Active”, the Activity (Mus musculus [19]) was “Active” and the Activity (Mus musculus [20]) was “Active”. The “fold change (FC)” value [21] was 2, the inhibition in vivo at 60 mg/kg [13] was 5.54% and the “fold change (FC)” value [22] was 2. For the same compound, the Activity (Mus musculus [23]) was “Active”, the “fold change (FC)” value [24] was 2 and the Activity (Mus musculus [25]) was “Active”.

For `CCn1cc(NC(=O)OCc2cc(Cl)cc(Cl)c2)c2cc(-c3nc(CN4CCOCC4)cs3)ccc21`, the Tmax [6] was 2.67 h, the half-life [8] was 2.56 h and the Cmax ([10]; read-out: Cmax) was 50 ng/mL. For the same compound, the CL/F [26] was 6.35 mL/min/kg, the AUC [14] was 240 ng·h/mL and the AUCt [15] was 240 ng·h/mL.

Work on `CCn1cc(NC(=O)NCc2ccc(Cl)cc2)c2cc(-c3nc(CN(CCO)CCO)cs3)ccc21` yielded an IC50 (Autotaxin) of 30 nM.
